Earlier results as cited in patent US20120302500A1, “USE OF SO[…] IN MENINGIOMA” (NOVARTIS AG, priority 2008, published 2012).
Starred links: 1 amine or outer side, 2 acyl side, 3 side chain; linkers in the order of their positions; H or OH if unused. Non-standard residues stand in square brackets, D forms with d. Residues, ends and D or L forms follow the SMILES beside them. Groups on a side chain read outwards from the residue. *: point of attachment. Ethylenediamine = C(CN[*:2])N[*:1]; Hyp = O=C(O)[C@@H]1C[C@@H](O)CN1; Phg = N[C@H](C(=O)O)c1ccccc1; CO = O=C([*:1])[*:2]; Bn = c1ccc(C*)cc1

Conditions: in vivo

SMILES: NCCCC[C@@H]1NC(=O)[C@@H](Cc2c[nH]c3ccccc23)NC(=O)[C@H](c2ccccc2)NC(=O)[C@@H]2C[C@@H](OC(=O)NCCN)CN2C(=O)[C@H](Cc2ccccc2)NC(=O)[C@H](Cc2ccc(OCc3ccccc3)cc2)NC1=O [pasireotide, cyclo[{4-(NH2—C2H4—NH—CO—O—)Pro}-Phg-DTrp-Lys-Tyr(4-Bzl)-Phe]] (cyclo([Hyp]([CO-Ethylenediamine])[Phg][dW]KY(Bn)F))
- half-life: 11 h
